viability, Activity and inhibition data for one molecule are collected here from ChEMBL document CHEMBL3739323, “Design, synthesis, and biological evaluation of novel quinazolinyl-diaryl urea derivatives as potential anticancer agents” (Eur J Med Chem, 2016).

The source made the active and inactive calls. The calls are words filed in the database; no cut-off is given here.

Data set [1] relates to A549. As to the kind of experiment: Induction of apoptosis in human A549 cells assessed as viable cells at 5 uM after 6 hrs by Annexin-V-FITC/Propidium iodide staining based flow cytometric analysis (reference value: 95.48 +/- 2.03%). In kind it is functional. The settings on record: A549, 6 h, read-out: Activity.
Data set [2] relates to A549. As to the kind of experiment: Induction of apoptosis in human A549 cells assessed as late apoptotic cells at 20 uM after 48 hrs by Annexin-V/Propidium iodide dual staining based flow cytometric analysis (reference value: 1.44 +/- 0.43%). In kind it is functional.
In data set [3] the test system is A549. The data set is described as follows: Induction of apoptosis in human A549 cells assessed as early apoptotic cells at 10 uM after 6 hrs by Annexin-V-FITC/Propidium iodide staining based flow cytometric analysis (reference value: 3.83 +/- 0.49%). The data set is classed as functional.
Data set [4] deals with A549. The data set is described as follows: Induction of apoptosis in human A549 cells assessed as necrotic cells at 20 uM after 48 hrs by Annexin-V/Propidium iodide dual staining based flow cytometric analysis (reference value: 2.57 +/- […]%). In kind it is functional. Background: In flow cytometry, cells or beads pass a laser one at a time.
Data set [5] relates to A549. The data set is described as follows: Induction of apoptosis in human A549 cells assessed as necrotic cells at 10 uM after 6 hrs by Annexin-V-FITC/Propidium iodide staining based flow cytometric analysis (reference value: 0.28 +/- 0.09%). The data set is classed as functional.
Data set [6] has as its system A549. The data set is described as follows: Effect on total Rb level in human A549 cells after 48 hrs by Western blot analysis. In kind it is ADME, cell-based. The settings on record: a549, 48 h. (In general: A western blot detects proteins with antibodies after separation by electrophoresis.)
Data set [7] deals with A549. As to the kind of experiment: Induction of apoptosis in human A549 cells assessed as upregulation of Bax expression after 48 hrs by Western blot analysis. The data set is classed as functional, cell-based.
Data set [8] deals with RAF proto-oncogene serine/threonine-protein kinase (Homo sapiens) (UniProt P04049). The data set is described as follows: Inhibition of C-Raf in human A549 cells after 48 hrs by Western blot analysis. The data set is classed as cell-based.
Data set [9] has as its target Serine/threonine-protein kinase B-raf (Homo sapiens) (UniProt P15056). As to the kind of experiment: Inhibition of B-Raf in human A549 cells at 5 to 20 uM after 48 hrs by Western blot analysis. The data set is classed as cell-based.
The subject of data set [10] is A549. As to the kind of experiment: Disruption of mitochondrial membrane potential in human A549 cells at 10 uM by JC-1 staining based laser scanning confocal microscopic analysis. The data set is classed as functional, cell-based.
Data set [11] deals with A549. As to the kind of experiment: Cell cycle arrest in human A549 cells assessed as accumulation at G2/M phase at 20 uM by propidium iodide staining based flow cytometric analysis (reference value: 12.77 +/- 1.55%). In kind it is functional.
Data set [12] relates to A549. The data set is described as follows: Induction of apoptosis in human A549 cells assessed as early apoptotic cells at 5 uM after 6 hrs by Annexin-V-FITC/Propidium iodide staining based flow cytometric analysis (reference value: 3.83 +/- 0.49%). The data set is classed as functional.
In data set [13] the test system is A549. As to the kind of experiment: Cell cycle arrest in human A549 cells assessed as accumulation at G2/M phase at 10 uM by propidium iodide staining based flow cytometric analysis (reference value: 12.77 +/- 1.55%). In kind it is functional.
The subject of data set [14] is A549. As to the kind of experiment: Induction of apoptosis in human A549 cells assessed as viable cells at 10 uM after 48 hrs by Annexin-V-FITC/Propidium iodide staining based flow cytometric analysis (reference value: 92.46 +/- 4.23%). The settings on record: A549, 48 h, read-out: Activity. In kind it is functional.

Chain of RAF proto-oncogene serine/threonine-protein kinase (Homo sapiens) (P04049 whole entry): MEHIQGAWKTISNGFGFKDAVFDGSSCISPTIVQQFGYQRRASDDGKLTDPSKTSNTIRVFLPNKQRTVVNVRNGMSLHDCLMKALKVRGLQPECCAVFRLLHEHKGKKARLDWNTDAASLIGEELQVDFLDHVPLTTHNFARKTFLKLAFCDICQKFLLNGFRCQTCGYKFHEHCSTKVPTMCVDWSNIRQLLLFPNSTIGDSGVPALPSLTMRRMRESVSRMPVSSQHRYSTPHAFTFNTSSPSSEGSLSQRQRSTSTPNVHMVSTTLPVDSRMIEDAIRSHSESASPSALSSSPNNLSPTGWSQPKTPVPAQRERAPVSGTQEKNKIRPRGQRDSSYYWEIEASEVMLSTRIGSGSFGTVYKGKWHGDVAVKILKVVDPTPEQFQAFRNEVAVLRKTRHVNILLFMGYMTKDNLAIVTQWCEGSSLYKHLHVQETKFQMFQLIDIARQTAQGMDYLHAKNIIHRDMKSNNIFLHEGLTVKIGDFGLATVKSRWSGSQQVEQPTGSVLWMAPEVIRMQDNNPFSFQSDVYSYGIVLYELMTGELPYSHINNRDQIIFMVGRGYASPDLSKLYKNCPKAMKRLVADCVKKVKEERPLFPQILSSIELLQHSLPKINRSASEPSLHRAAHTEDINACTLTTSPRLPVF
Chain of Serine/threonine-protein kinase B-raf (Homo sapiens) (P15056 whole entry): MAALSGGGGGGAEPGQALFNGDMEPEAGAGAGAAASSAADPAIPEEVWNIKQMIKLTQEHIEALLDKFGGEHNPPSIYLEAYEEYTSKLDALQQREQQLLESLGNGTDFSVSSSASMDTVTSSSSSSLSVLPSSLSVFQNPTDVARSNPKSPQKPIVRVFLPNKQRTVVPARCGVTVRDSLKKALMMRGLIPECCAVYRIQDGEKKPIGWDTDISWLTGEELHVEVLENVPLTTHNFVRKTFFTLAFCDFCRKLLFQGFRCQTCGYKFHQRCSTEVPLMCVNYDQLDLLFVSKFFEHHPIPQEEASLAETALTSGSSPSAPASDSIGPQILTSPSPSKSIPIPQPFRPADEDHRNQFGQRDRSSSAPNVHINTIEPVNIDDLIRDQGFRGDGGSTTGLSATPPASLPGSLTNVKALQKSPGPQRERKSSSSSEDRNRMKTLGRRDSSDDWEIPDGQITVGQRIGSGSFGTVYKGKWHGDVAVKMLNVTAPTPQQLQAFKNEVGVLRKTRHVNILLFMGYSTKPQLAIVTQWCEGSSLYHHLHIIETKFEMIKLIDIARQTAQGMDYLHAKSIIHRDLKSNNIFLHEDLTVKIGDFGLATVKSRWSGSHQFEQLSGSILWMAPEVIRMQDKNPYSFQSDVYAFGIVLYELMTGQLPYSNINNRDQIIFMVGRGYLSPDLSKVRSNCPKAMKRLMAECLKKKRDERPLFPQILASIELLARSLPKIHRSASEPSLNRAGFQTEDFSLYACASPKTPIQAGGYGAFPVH

Take `COc1cc2ncnc(NCc3cccc(NC(=O)Nc4ccc(C(C)(C)C)cc4)c3)c2cc1OC`: the viability at 5 µM in data set [1] was found to be 89.4%. The Activity in [2] was 5.65%; in data set [3], 12.2%; in data set [4], 42.2%; in [5] it was 0.56%; in [6] it was “Non-toxic”; in data set [7], “Dose-dependent effect”. For the same molecule, the values for the Activity in data set [11], in [12] and in [13] were 1.07%, 4.21% and 7.65%, respectively. The inhibition entry in data set [8] was “Dose-dependent effect”. Also, the inhibition entry in [9] was “inactive”. The result in [10] was Active. The viability at 10 µM in data set [14] was 67.5%.
